Biological target: human M3R (M3 muscarinic acetylcholine receptor) (Homo sapiens, UniProt P20309)
Assay: cell-based

human M3R (M3 muscarinic acetylcholine receptor), sequence (P20309 whole entry): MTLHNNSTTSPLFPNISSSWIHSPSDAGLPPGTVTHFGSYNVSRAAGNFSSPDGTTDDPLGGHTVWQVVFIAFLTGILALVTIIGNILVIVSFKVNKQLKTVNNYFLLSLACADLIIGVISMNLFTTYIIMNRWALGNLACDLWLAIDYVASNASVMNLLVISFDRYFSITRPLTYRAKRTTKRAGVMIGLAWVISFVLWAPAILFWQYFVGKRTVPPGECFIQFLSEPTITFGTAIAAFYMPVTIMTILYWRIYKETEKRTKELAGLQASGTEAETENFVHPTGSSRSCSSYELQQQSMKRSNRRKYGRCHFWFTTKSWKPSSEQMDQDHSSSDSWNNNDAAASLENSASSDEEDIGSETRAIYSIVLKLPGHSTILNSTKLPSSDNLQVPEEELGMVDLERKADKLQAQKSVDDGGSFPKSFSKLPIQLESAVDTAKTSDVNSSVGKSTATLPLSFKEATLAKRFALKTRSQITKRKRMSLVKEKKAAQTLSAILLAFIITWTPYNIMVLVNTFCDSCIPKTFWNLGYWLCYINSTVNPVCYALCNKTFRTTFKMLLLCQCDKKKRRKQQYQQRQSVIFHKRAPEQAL

C[N+](C)(C)CC#CCN1CCCC1=O [Oxotremorine-M]
EC50: 12.6 nM

Reference: article PMC11114115 (Molecular Pharmacology, 2024)
